The target of one assay is T1, 5α-reductase (Homo sapiens, UniProt P31213).
T1 construct: 3×FLAG; expressed in transfected cells; host or cells: HEK 293
T1 sequence (P31213 1-254): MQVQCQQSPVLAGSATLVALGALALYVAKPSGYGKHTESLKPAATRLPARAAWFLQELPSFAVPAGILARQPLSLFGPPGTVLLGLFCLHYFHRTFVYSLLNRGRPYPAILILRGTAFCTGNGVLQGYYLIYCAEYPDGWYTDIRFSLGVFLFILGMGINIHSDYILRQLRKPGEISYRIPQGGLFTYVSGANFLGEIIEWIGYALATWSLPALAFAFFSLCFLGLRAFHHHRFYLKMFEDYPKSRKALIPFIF
In words: Inhibitory effect on 5α-reductase activity: conversion of [14C]testosterone to [14C]dihydrotestosterone in HEK 293-5α R2 cells. Type of assay: cell-based. As to conditions: for Inhibition rate (%) / Conversion rate (%): 2 μg/ml, 2 hours, HEK 293-5α R2 cells; for Inhibition rate (%): relative to conversion rate of control group; for Conversion rate (%): radioactivity at DHT region/total radioactivity, control group 48. The protocol: In order to evaluate the inhibitory effect on the activity of 5α-reductase, the conversion rate from [^14C] testosterone to [^14C] dihydrotestosterone in HEK 293-5α R2 cells was measured. HEK 293 cells were transfected with p3×FLAG-CMV-5α R2, and the transfected HEK 293 cells (HEK 293-5α R2 cells) were seeded in a 24-well plate, 2.5×10^5 cells per well (Park et al., 2003, JDS. Vol. 31, pp 191-98). The next day, the used culture medium was replaced with a new culture medium containing an enzyme substrate and an inhibitor. The substrate of the culture medium used was 0.05 μCi [^14C]testosterone (Amersham Pharmacia Biotech, UK). […] At this time, for comparison, the negative control used was the group not containing any of the above test substances, while the positive control used was the group in which finasteride was added to the medium at 2 μg/ml and cultured under the same conditions. Subsequently, the culture medium was collected to extract estosterone with 800 μl of ethylacetate. The supernatant organic solvent phase was isolated and dried. The residue was dissolved in 50 μl of ethylacetate and developed on silica plastic sheet kieselgel 60 F254 using an ethylacetate-hexane (1:1) as a developing solvent. The plastic sheet was dried out in the air and measured in regards to the abundance of isotope using a BAS system. The dry plastic sheet together with an X-ray film was put in a bath cassette. After one week, the amount of isotope of testosterone and dihydrotestosterone remaining on the film was measured.

In a further assay the test system is PGE-2. As to the kind of experiment: Decrease in expression of skin inflammatory factor PGE-2 in UVB-exposed keratinocytes (ELISA). It is filed as cell-based, human. The settings on record: 2 μg/ml, 16 hours, keratinocytes after UVB exposure. The procedure:
In order to measure the effect of suppressing the expression of PGE-2 which is a skin inflammatory factor of 1,3-dicaffeoylquinic acid, 1,5-dicaffeoylquinic acid and amentoflavone of the present invention, ELISA (Enzyme Linked ImmunoSorbent Assay) was performed (S E Dunsmore, et al., J Biol Chem, 271: 24576-24582, 1996).
5×10^4 cells of keratinocytes isolated from human epidermal tissue were put in each well of a 24-well plate and immobilized for 24 hours. The culture medium was replaced with a medium not containing FBS and treated with aspirin to remove the activity of prostaglandin biosynthetic enzyme (prostaglandin H2 synthetase, or cyclooxygenase). Two hours after aspirin treatment, each well containing keratinocytes was washed twice with PBS to which 100 μl of PBS was added to each well. The keratinocytes were exposed to […] of ultraviolet radiation under an ultraviolet B (UV B) lamp (Model: F15T8, UV B15W, Sankyo Dennki, Japan). Each well was removed of PBS and supplied with 250 ul of the keratinocyte growth media (Clonetics BioWhittacker, MD, USA).
Here, the substances 1,3-dicaffeoylquinic acid, 1,5-dicaffeoylquinic acid and amentoflavone were treated at a dose of 2 μg/ml, followed by culturing for 16 hours. By taking an appropriate amount of culture supernatant and quantifying PGE-2 biosynthesized for 16 hours, the prostaglandin inhibitory effects of 1,3-dicaffeoylquinic acid, 1,5-dicaffeoylquinic acid and amentoflavone was evaluated. The expression inhibitory effect of PGE-2 was calculated by the following mathematical formula 1, and the results are shown in Table 4 below.
Expression inhibition rate of PGE-2(%)=(A−B)/A*100 [Mathematical Formula 1]
A: Absorbance of well to which test substance was not added
B: Absorbance of the well to which test substance was added
(In general: An ELISA detects its analyte on a solid surface through an enzyme-linked reagent.)

Assay [1] concerns reactive oxygen species (ROS). As to the kind of experiment: Inhibition of formation of reactive oxygen species in UVB-exposed keratinocytes (DCF-DA fluorescence). Type of assay: cell-based, human. As to conditions: 2 μg/ml; for ROS, ratio to the ROS of the control group, 0 hr: 0 hr after exposure to 30 mJ/cm^2 of UVB, UVB + untreated 100; for ROS, ratio to the ROS of the control group, 2 hrs: 2 hrs after exposure to 30 mJ/cm^2 of UVB, UVB + untreated 325, untreated 244; for ROS, ratio to the ROS of the control group, 3 hrs: 3 hrs after exposure to 30 mJ/cm^2 of UVB, UVB + untreated 381, untreated 287. The procedure: 5×10^4 cells of Keratinocytes isolated from the human epidermal tissue were put in each well of a 24-well plate and immobilized for 24 hours. After the culture medium was removed, 100 μl of phosphate buffered saline (PBS) solution was added to each well. The keratinocytes were exposed to 30 mJ/cm^2 of ultraviolet radiation under an ultraviolet B (UV B) lamp (Model: F15T8, UV B 15 W, Sankyo Denki Co., Ltd., Japan). Each well was removed of the PBS solution and then supplied with 200 μl1 of the keratinocyte culture medium. The well was treated with 2 μg/ml of 1,3-dicaffeoylquinic acid, 1,5-dicaffeoylquinic acid and amentoflavone as the test substances, respectively. Then, the quantity of the reactive oxygen species (ROS) increased by the UV stimulation was determined at defined time intervals. At this time, for comparison, the quantity of reactive oxygen species was also measured for those not treated with test substance (untreated) and not stimulated with ultraviolet rays and those subjected to ultraviolet stimulation without treatment of the test substance. The quantity of ROS was quantified by referring to Tan's method for measuring the fluorescence of dichlorofluorescin diacetate (DCF-DA) oxidized by ROS (Tan et al., 1998, J. Cell Biol. Vol. 141, pp 1423-1432).

Another assay relates to B antigen (ABH antigen). In words: Effect of increasing the expression of B antigen in HaCaT cell line (western blot). As to conditions: HaCaT cells, 2 μg/ml, 48 hours; for expression of B type antigen: western blot, FIG. 2; for expression of ABH antigen: data not shown. It is filed as cell-based. The protocol:
The effect of various kinds of compounds on the expression of ABH antigen was examined. For this purpose, HaCaT cells (provided by Prof. Dr. N E Fusenig, DKFZ Heidelberg, Germany) were cultured in 10% FBS-DMEM for 24 hours in a 35 mm dish and then cultured in 0% FBS-DMEM for 24 hours to make to a starvation state.
Again, while replacing the medium with 0% FBS-DMEM, various kinds of compounds as test substances were treated with HaCaT cells at a concentration of 2 μg/ml, respectively, and cultured for 48 hours. At this time, for comparison, the control group was treated with DMSO at the same concentration as the sample. […] In case where these three compounds were treated, proteins were extracted from the cells, the cell lysate was loaded in the same amount, and then the expression of type B antigen was examined by western blot. Alpha-tubulin protein was used as a control group.
On the technique in general: A western blot detects proteins with antibodies after separation by electrophoresis.

In the next assay the test system is skin pore size. In words: Effect of reducing skin pores in rhino mice. Type of assay: in vivo. The settings on record: 0.5 ml of 1% solution applied to rhino mice for 1 week; control group (solvent) 65. The protocol:
At this time, for comparison, only 0.5 ml of solvent was applied to one group. The substances were treated for 1 week and the back part was biopsied 24 hours after the last treatment. The epidermis was separated, immersed in 0.5% acetic acid, fixed in 10% formalin and cut vertically at […]. After staining with hematoxylin and eosin, the skin pore size was measured using a mechanical eyepiece micrometer.

The test system of the next assay is procollagen type(I). As to the kind of experiment: Promotion of collagen biosynthesis in fibroblasts (procollagen type(I) ELISA). It is filed as cell-based. The settings on record: 2 μg/ml, 24 hours, untreated group as 100. The protocol: The collagen biosynthesis promoting effect of 1,3-dicaffeoylquinic acid, 1,5-dicaffeoylquinic acid and amentoflavone used in the present invention was measured in comparison with TGF-β.
First, 1×10^5 cells of fibroblasts were seeded in each well of a 24-well plate and cultured until they grew to about 90%. This was cultured in a serum-free DMEM medium for 24 hours and then treated with 2 μg/ml of 1,3-dicaffeoylquinic acid, 1,5-dicaffeoylquinic acid, amentoflavone and TGF-β, respectively, and cultured for 24 hours in a CO2 incubator. These supernatant fluids were removed and the procollagen type(I) ELISA kit was used to observe whether procollagen was increased or decreased. The results are shown in Table 6, and the collagen synthesis ability was compared with the untreated group as 100.

The inhibition is how much of the control response was suppressed.

On to `O=C(/C=C/c1ccc(O)c(O)c1)O[C@@H]1C[C@](OC(=O)/C=C/c2ccc(O)c(O)c2)(C(=O)O)C[C@@H](O)[C@H]1O` [1,5-dicaffeoylquinic acid], for which, on 5α-reductase, the “Inhibition rate (%)” value came out at 38% and the “Conversion rate (%)” value was 30%. For the same compound, the “PGE-2 expression inhibition rate(%)” value in the assay with PGE-2 turned out to be 32.5%. In assay [1], the “ROS, ratio to the ROS of the control group, 0 hr” value (“ROS, ratio to the ROS … 0 hr” for short) is recorded as 100; the “ROS, ratio to the ROS of the control group, 2 hrs” value (“ROS, ratio to the ROS … 2 hrs” for short) stood at 280; the “ROS, ratio to the ROS of the control group, 3 hrs” value (from here on “ROS, ratio to the ROS … 3 hrs”) worked out at 315. Also, in the assay on B antigen (ABH antigen), the “expression of B type antigen” value was “increasing the expression of B type antigen” and the “expression of ABH antigen” value was “significantly increase the expression of ABH antigen”. The compound also gave a Skin Pore size (µm) with skin pore size of 54 µm. The “Collagen synthesis ability (%)” value in the assay with procollagen type(I) amounted to 144.2 ± 11.0%.
Consider `CC(C)(C)NC(=O)[C@H]1CC[C@H]2[C@@H]3CC[C@H]4NC(=O)C=C[C@]4(C)[C@H]3CC[C@]12C` [Finasteride, finasteride, reference compound], for which the “Conversion rate (%)” value on 5α-reductase was 27%.
With `O=c1cc(-c2ccc(O)c(-c3c(O)cc(O)c4c(=O)cc(-c5ccc(O)cc5)oc34)c2)oc2cc(O)cc(O)c12` [amentoflavone], at 5α-reductase (HEK2935, read-out: Inhibition rate (%)), the inhibition at 2 µg/mL was found to be 33%. Also, the “Conversion rate (%)” value at 5α-reductase is given as 32%. In addition, the “PGE-2 expression inhibition rate(%)” value with PGE-2 was 30.9%. In assay [1], the “ROS, ratio to the ROS … 0 hr” value came to 100; the “ROS, ratio to the ROS … 2 hrs” value is recorded as 288; the “ROS, ratio to the ROS … 3 hrs” value turned out to be 320. In addition, in the assay on B antigen (ABH antigen), the “expression of B type antigen” value is on record as “increasing the expression of B type antigen” and the “expression of ABH antigen” value is “significantly increase the expression of ABH antigen”. The Skin Pore size (µm) in the assay with skin pore size turned out to be 50 µm. Moreover, the “Collagen synthesis ability (%)” value in the assay on procollagen type(I) worked out at 147.7 ± 15.8%.
As to `O=C(O[C@@H]1Cc2c(O)cc(O)cc2O[C@@H]1c1cc(O)c(O)c(O)c1)c1cc(O)c(O)c(O)c1` [EGCG, reference compound], the Skin Pore size (µm) with skin pore size came to 60 µm.
Regarding `O=C(/C=C/c1ccc(O)c(O)c1)OC1CC(OC(=O)/C=C/c2ccc(O)c(O)c2)(C(=O)O)CC(O)C1O` (centres unmarked) [1,3-dicaffeoylquinic acid], on 5α-reductase, the “Inhibition rate (%)” value is 38% and the “Conversion rate (%)” value was found to be 30%. The “PGE-2 expression inhibition rate(%)” value in the assay with PGE-2 amounted to 28.1%. Besides, in assay [1], the “ROS, ratio to the ROS … 0 hr” value came out at 100; the “ROS, ratio to the ROS … 2 hrs” value was found to be 277; the “ROS, ratio to the ROS … 3 hrs” value came to 319. Further, in the assay with B antigen (ABH antigen), the “expression of B type antigen” value is on record as “increasing the expression of B type antigen” and the “expression of ABH antigen” value is given as “significantly increase the expression of ABH antigen”. The Skin Pore size (µm) with skin pore size came to 53 µm. Further, the “Collagen synthesis ability (%)” value with procollagen type(I) is reported as 142.1 ± 13.1%.

(Values after patent US20190142721A1, “COMPOSITION CONTAINING SUBSTANCE FOR REGULATING EXPRESSON OF ABH ANTIGENS” (AMOREPACIFIC CORPORATION, priority 2014, published 2019).)
